Values of other authors in patent publication US20180200206A1, “[…] METHODS AND COMPOSITIONS FOR TREATING BREAST DISORDERS” (ATOSSA GENETICS INC., priority 2015, published 2018).

Target: estrogen receptor (Homo sapiens, UniProt P03372)
Settings: more potent than tamoxifen; stated as known in the art

estrogen receptor, sequence (P03372 whole entry): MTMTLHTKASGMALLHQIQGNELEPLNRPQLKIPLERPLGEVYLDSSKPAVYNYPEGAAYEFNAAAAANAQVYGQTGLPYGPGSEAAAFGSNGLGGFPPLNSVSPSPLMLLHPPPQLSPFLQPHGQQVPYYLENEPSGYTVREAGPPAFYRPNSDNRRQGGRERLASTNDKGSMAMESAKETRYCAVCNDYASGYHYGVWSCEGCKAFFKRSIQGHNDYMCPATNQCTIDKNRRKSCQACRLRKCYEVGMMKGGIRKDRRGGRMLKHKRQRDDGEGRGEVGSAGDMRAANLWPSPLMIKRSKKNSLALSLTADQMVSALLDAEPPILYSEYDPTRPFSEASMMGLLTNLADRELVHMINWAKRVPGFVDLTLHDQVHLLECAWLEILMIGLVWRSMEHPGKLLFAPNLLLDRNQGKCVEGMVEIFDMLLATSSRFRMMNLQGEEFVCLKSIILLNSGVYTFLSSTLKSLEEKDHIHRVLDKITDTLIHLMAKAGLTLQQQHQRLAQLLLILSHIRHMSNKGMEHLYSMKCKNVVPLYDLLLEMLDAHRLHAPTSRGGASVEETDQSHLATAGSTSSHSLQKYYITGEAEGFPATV

potency relative to tamoxifen: 100 times
Substance: 4-hydroxytamoxifen
